In paper PMC6588697, “Lugdunin amplifies innate immune responses in the skin in synergy with host- and microbiota-derived factors” (Nature Communications, 2019):

Assays:
S. epidermidis = assay: Antimicrobial testing (CFU) against S. epidermidis; assay type: cell-based, Staphylococcus epidermidis; details: 3 h, mean
Experimental: (§1) For bactericidal testing, logarithmically growing staphylococci were resuspended in PBS (Sigma) containing 0.1% TSB (Carl Roth) and colony-forming unit (CFU) was adjusted to 3 × 10^6 CFU/mL. Different concentrations of single peptides and their combinations were diluted in PBS containing 0.1% TSB and incubated with bacteria in triplicates for 3 h at 37 °C and 150 rpm orbital shaking. Subsequently, serial dilutions (10^–1–10^–4) of the bacterial suspensions were prepared in PBS and 20 µL of each dilution was spotted in duplicates onto TSB plates and incubated at 37 °C overnight. The next day, the number of CFU was analyzed and the percentage of viable bacteria was determined by normalizing to the untreated control (100%). Results are illustrated in a S. aureus killing curve. In each experiment, negative control replicates (PBS + 0.1% TSB) as well as sterility control replicates were included.
(§2) Supplementary Figure 7: Efficiency of Lugdunin and DCD -1(L) combinations in 107 […]
(§3) logarithmically grown bacteria were incubated with indicated combinations of 109 lugdunin and DCD-1(L) in PBS containing 0.1% TSB at 37 °C orbital shaking. After 3 110 hours of incubation several dilutions of the bacterial suspensions were plated onto TSB 111 agar pl ates and incubated over night at 37 °C. The next day bacterial CFU were 112 counted. Each experiment was performed in triplicates. Data represent the mean 113 percentage of CFU normalized to the untreated control. Data represent the mean of at 114 least three independent experiments. 115
(§4) (1 picture or pasted object on this page, not shown here)

B. subtilis = assay: Antimicrobial testing (CFU) against B. subtilis; assay type: cell-based, Bacillus subtilis; details: for B. subtilis CFU normalized to untreated control (1,00): 3 h, mean
Experimental: as §1, §2, §3, §4

P. aeruginosa = assay: Antimicrobial testing (CFU) against P. aeruginosa; assay type: cell-based, Pseudomonas aeruginosa; details: 3 h
E. coli = assay: Antimicrobial testing (CFU) against E. coli; assay type: cell-based, Escherichia coli; details: 3 h, mean
P. mirabilis = assay: Antimicrobial testing (CFU) against P. mirabilis; assay type: cell-based, Proteus mirabilis; details: 3 h, mean
Experimental: as §1, §2, §3, §4

PHKs = assay: Viability assay (MUH) in PHKs; assay type: cell-based, human
Experimental: Effects of the used peptides on keratinocytes, PBMCs, and nasal and tracheal epithelial cell viability were tested using 4-methylumbelliferyl heptanoate (MUH). Briefly, cells were treated with peptides and respective peptide combinations for 24 h, followed by incubation with 100 μg/mL MUH (Sigma-Aldrich) in PBS for 1 h at 37 °C. The absolute fluorescence intensity at λex of 355 nm and λem of 460 nm was measured using a Fluoroskan II (Labsystems).
10 a: PHKs were treated with increasing concentrations of lugdunin for 24 hours and 11 subsequently expression of CAMP (LL-37) was analyzed and normalized to actin. […]
14 b+c: PHKs were treated with increasing concentrations of lugdunin for 24 hours and 15 subsequently the concentration of LL-37 and CXCL8 in the supernatant was analyzed . […]
18 d: Representative hematoxylin-eosin-stained paraffin-embedded human 3D skin 19 equivalent. […] After 24 hours, the concentration of LL-37 and CXCL8 in the 21 supernatant was analyzed. […] Significant differences to control treatments were analyzed 23 by an unpaired two-tailed t-test (*P<0.05). […]
26 f: PHKs were treated with 2 µM natural lugdunin, synthetic lugdunin, N -Acetyl lugdunin 27 (grey bars) or 100 ng/mL Pam2Cys or Pam3Cys (white bars) as positive control for 5 28 hours and subsequently expression of CXCL8 was analyzed and normalized to actin. […]

[1] = single peptide 1 µM, PBS + 0.1% TSB, 37 °C, mean of at least three experiments

| Substance | S. epidermidis CFU normalized to untreated control (1,00) (S. epidermidis; single peptide 1 µM) | S. epidermidis CFU normalized to untreated control (1,00) (S. epidermidis; single peptide 2 µM) | S. epidermidis CFU normalized to untreated control (1,00) (S. epidermidis; single peptide 3 µM) | B. subtilis CFU normalized to untreated control (1,00) (B. subtilis; single peptide 1 µM) | B. subtilis CFU normalized to untreated control (1,00) (B. subtilis; single peptide 2 µM) | B. subtilis CFU normalized to untreated control (1,00) (B. subtilis; single peptide 3 µM) | susceptibility of B. subtilis (in words) (B. subtilis; text to Supp Fig 7) | P. aeruginosa CFU normalized to untreated control (1,00) (P. aeruginosa; [1]) | P. aeruginosa CFU normalized to untreated control (1,00) (P. aeruginosa; single peptide 2 µM, mean) | P. aeruginosa CFU normalized to untreated control (1,00) (P. aeruginosa; single peptide 3 µM, mean) | E. coli CFU normalized to untreated control (1,00) (E. coli; single peptide 1 µM) | E. coli CFU normalized to untreated control (1,00) (E. coli; single peptide 2 µM) | E. coli CFU normalized to untreated control (1,00) (E. coli; single peptide 3 µM) | P. mirabilis CFU normalized to untreated control (1,00) (P. mirabilis; single peptide 1 µM) | P. mirabilis CFU normalized to untreated control (1,00) (P. mirabilis; single peptide 2 µM) | P. mirabilis CFU normalized to untreated control (1,00) (P. mirabilis; single peptide 3 µM) | toxicity to the cell types analyzed (in words) (PHKs) |
| --- | --- | --- | --- | --- | --- | --- | --- | --- | --- | --- | --- | --- | --- | --- | --- | --- | --- |
| Lugdunin | 1,08 | 0,86 | 1,20 | 0,81 | 0,60 | 0,44 | susceptible | 1,34 | 1,01 | 1,41 | 1,05 | 1,34 | 1,27 | 1,13 | 0,84 | 0,98 | not toxic |
| SSLLEKGLDGAKKAVGGLGKLGKDAVEDLESVGKGAVHDVKDVLDSV [DCD-1, dermcidin-derived human AMP of eccrine sweat glands] | 1,51 | 0,94 |  | 1,14 | 1,04 |  |  | 0,93 | 1,21 |  | 1,31 | 1,87 |  | 1,05 | 0,98 |  |  |
| SSLLEKGLDGAKKAVGGLGKLGKDAVEDLESVGKGAVHDVKDVLDSVL [DCD-1L, dermcidin-derived human AMP of eccrine sweat glands] | 1,43 | 1,33 |  | 0,96 | 0,63 |  |  | 1,39 | 1,19 |  | 1,26 | 1,92 |  | 0,95 | 1,10 |  |  |
